Source: PubChem BioAssay (NCI)
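1) Cells in 96-well plates. 2) Compound, 48 h, 5 concentrations. 3) Linear interpolation between surrounding doses. 4) Unreached endpoint = highest concentration. At the GI50, growth is halved. TGI: total growth inhibition.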

Key:
Assay in all cases: inhibition of tumour cell growth, NCI panel, 48 h
[1] = test system: ACHN renal
[2] = test system: DU-145 prostate
[3] = test system: IGROV1 ovarian
[4] = test system: M14 melanoma
[5] = test system: NCI-H522 lung
[6] = test system: OVCAR-3 ovarian
[7] = test system: OVCAR-8 ovarian
[8] = test system: SK-MEL-28 melanoma
[9] = test system: SNB-19 CNS
[10] = test system: HCC-2998 colon

Row | Compound | TGI [1] | TGI [2] | TGI [3] | TGI [4] | TGI [5] | TGI [6] | TGI [7] | TGI [8] | TGI [9] | TGI [10] | GI50 [1] | GI50 [2] | GI50 [5] | GI50 [6] | GI50 [8] | GI50 [3] | GI50 [7] | GI50 [4] | GI50 [9]
1 | Oc1ccc2ccccc2c1N=Nc1ccc(N=Nc2ccccc2)cc1 | > 100 µM | > 100 µM | > 100 µM | > 100 µM | > 100 µM | > 100 µM | > 100 µM | > 100 µM | > 100 µM |  |  |  |  |  |  |  |  |  | 
2 | C#CCCCCC#CC1CCCC1C1=CC(=O)c2ccccc21 (configuration not stated) | 19.9 µM |  | 19.4 µM | 17 µM | 22 µM | 17.8 µM | 3.52 µM | 18.5 µM | 28.8 µM | 25.2 µM |  |  |  |  |  |  |  |  | 
3 | CCCNCC(O)/C=C/[Si](C)(C)C (configuration not stated) (tested in a mixture with another compound) | > 100 µM |  | > 100 µM | > 100 µM | > 100 µM | > 100 µM | > 100 µM | > 100 µM | > 100 µM | > 100 µM |  |  |  |  |  |  |  |  | 
4 | CCCCCCc1ccc(O)cc1O |  |  | > 93.8 µM |  | > 100 µM | > 100 µM | > 100 µM | > 100 µM | > 100 µM | > 100 µM |  |  |  |  |  |  |  |  | 
5 | Cc1ccccc1N=Nc1ccc(N=Nc2c(O)ccc3cc(S(=O)(=O)O)cc(S(=O)(=O)O)c23)c(C)c1 | > 100 µM |  | > 100 µM | > 100 µM | > 100 µM | > 100 µM | > 100 µM | > 100 µM | > 100 µM | > 100 µM |  |  |  |  |  |  |  |  | 
6 | NC(=O)c1nnc2cc(F)c(F)cc2c1N | > 100 µM | > 100 µM | > 100 µM | > 100 µM | 56.8 µM | > 100 µM | > 100 µM |  | > 100 µM | > 100 µM |  |  |  |  |  |  |  |  | 
7 | C/C=C1/CN2CC[C@@H]3c4ccccc4N4[C@H](C(=O)OC)[C@H]1C[C@H]2[C@]34/C=C/C1=COC[C@@H]2[C@H]1C[C@H]1c3c(c4ccccc4n3C)C[C@@H]2N1C | 7.43 µM | 11.9 µM | 8.81 µM | 7.9 µM |  | 9.66 µM | 8.04 µM | 8.88 µM | 7.39 µM | 1.31 µM |  |  |  |  |  |  |  |  | 
8 | CC(=O)O[C@H]1CC[C@]2(C)[C@H]3C(=O)C=C4[C@@H]5C[C@](C)(C(=O)N6CCCNCC6)CC[C@]5(C)CC[C@@]4(C)[C@]3(C)CC[C@H]2C1(C)C | 3.02 µM | 3.15 µM |  |  | 3.42 µM | 3.29 µM |  | 3.29 µM |  |  | 1.66 µM | 1.71 µM | 1.68 µM | 1.76 µM | 1.85 µM |  |  |  | 
9 | O=[N+]([O-])/C=C/c1cccc(F)c1 | 6.84 µM | 21.6 µM | > 100 µM | 10.7 µM | 26.9 µM | 7.38 µM | 32 µM | 5.87 µM | 29.7 µM | 31.6 µM |  |  |  |  |  |  |  |  | 
10 | O=C(N/N=C/c1cc(Br)cc(Br)c1[O-])c1ccccc1O.O=C(N/N=C/c1cc(Br)cc(Br)c1[O-])c1ccccc1O.[Cl-].[Fe+3] | 18.3 µM |  | 30.6 µM | 9.96 µM | 4.56 µM | 12.8 µM | 33.4 µM |  | 21.3 µM | 5.65 µM |  |  |  |  |  |  |  |  | 
11 | C[n+]1ccccc1/C=C/c1ccc2c(c1)OCO2 | > 10 µM | > 10 µM | > 10 µM | > 10 µM | > 10 µM | > 10 µM | > 10 µM | > 10 µM | > 10 µM | > 10 µM |  |  |  |  |  |  |  |  | 
12 | Cc1c2ccccc2nc2[nH]c3ccncc3c12 | 77.2 µM | > 100 µM | > 100 µM | 85.7 µM | > 100 µM | 91.9 µM | > 100 µM | > 100 µM | > 100 µM |  |  |  |  |  |  |  |  |  | 
13 | N=c1nc(N)nc(N)n1-c1ccc(S(N)(=O)=O)cc1 | > 100 µM | > 100 µM | > 100 µM | > 100 µM | > 100 µM | > 100 µM | > 100 µM | > 100 µM | > 100 µM |  |  |  |  |  |  |  |  |  | 
14 | CCOC(=O)C1=C(C)N2CCCOC2(C)C(C(=O)OC)C1c1cccc([N+](=O)[O-])c1 (configuration not stated) | > 100 µM |  | > 100 µM | > 100 µM |  | > 100 µM | > 100 µM | > 100 µM | > 100 µM | > 100 µM |  |  |  |  |  |  |  |  | 
15 | CN(C)CCNc1ccc2nnn3c4ccc(Cl)cc4c(=O)c1c23 | 12.3 µM | 26.2 µM | 38.7 µM | 16.7 µM | 17.5 µM | 23 µM | 16.9 µM | 18 µM | 26.7 µM | 23.4 µM |  |  |  |  |  |  |  |  | 
16 | COc1cc2c(cc1O)CCN[C@@]21CS[C@H]2c3c(OC(C)=O)c(C)c4c(c3C(COC1=O)N1C2C2c3c(cc(C)c(OC)c3O)CC([C@@H]1O)N2C)OCO4 (some centres not stated) | 0.0012 µM |  |  | 0.00473 µM | 0.00273 µM |  |  | 0.00682 µM |  |  |  | 0.00462 µM | 0.000953 µM |  | 0.00242 µM | 0.000783 µM | 0.00149 µM |  | 
17 | COc1cc2c(cc1OC)C(C1(O)CCCCC1)NCC2 (configuration not stated) | > 100 µM |  | > 100 µM | > 100 µM |  | > 100 µM | > 100 µM | > 100 µM |  | > 100 µM |  |  |  |  |  |  |  |  | 
18 | N=C(N)SC1c2ccccc2-c2cc([N+](=O)[O-])ccc21 (configuration not stated) | 18.9 µM | 15.9 µM | 18 µM | 17.7 µM | 6.47 µM | 7.47 µM | 37.1 µM | 17.5 µM | 14.3 µM | 9.84 µM |  |  |  |  |  |  |  |  | 
19 | Cc1ccc(NCCN(C)CC(C)O)c2c(=O)c3ccc(Cl)cc3sc12 (configuration not stated) |  | > 100 µM | > 100 µM | 3.38 µM |  | > 100 µM | > 100 µM | 3.31 µM | > 100 µM |  |  | 3.75 µM |  | 4.13 µM | 1.75 µM | 4.79 µM | 7.16 µM | 1.77 µM | 4.62 µM
20 | Cc1nnc2sc(-c3ccc(N)cc3)nn12 | > 100 µM | > 100 µM | > 100 µM | > 100 µM | > 100 µM | > 100 µM | > 100 µM | > 100 µM | > 100 µM | > 100 µM |  |  |  |  |  |  |  |  | 
21 | Nc1nc(Cl)cc(NCCCCO)n1 | > 100 µM |  | > 100 µM | > 10 µM |  | > 10 µM | > 100 µM | > 100 µM | > 100 µM | > 100 µM |  |  |  |  |  |  |  |  | 
22 | O=S(=O)(O)c1cc(O)c2c(O)c(N=Nc3ccc(/C=C/c4ccc(N=Nc5c(S(=O)(=O)O)cc6cc(S(=O)(=O)O)cc(O)c6c5O)cc4S(=O)(=O)O)c(S(=O)(=O)O)c3)c(S(=O)(=O)O)cc2c1 | > 100 µM |  | > 100 µM | > 100 µM | > 100 µM | > 100 µM | > 100 µM | > 100 µM | > 100 µM | > 100 µM |  |  |  |  |  |  |  |  | 
